From ChEMBL document CHEMBL1240308, “Elevated levels of oxidized cholesterol metabolites in Lewy body disease brains accelerate alpha-synuclein fibrilization” (Nat Chem Biol, 2006)
Calls of active or inactive are those of the source. No cut-off for these calls is given here.

Tests used:
[1] = molecular target: Alpha-synuclein (Homo sapiens) (UniProt P37840); experiment: Induction of alpha-synuclein aggregation in PBS buffer assessed as transition of alpha-synuclein from natively unfolded monomer to cross-beta-sheet conformation after 48 hrs by CD spectroscopy
[2] = molecular target: Alpha-synuclein (Homo sapiens) (UniProt P37840); experiment: Induction of alpha-synuclein aggregation in PBS buffer assessed as fluorescence after 330 hrs by Thioflavin T fluorescence assay
[3] = molecular target: Alpha-synuclein (Homo sapiens) (UniProt P37840); experiment: Induction of alpha-synuclein aggregation in PBS buffer assessed as fluorescence after 96 hrs by Thioflavin T fluorescence assay
[4] = molecular target: Alpha-synuclein (Homo sapiens) (UniProt P37840); experiment: Induction of alpha-synuclein aggregation in PBS buffer assessed as transition of alpha-synuclein from natively unfolded monomer to cross-beta-sheet conformation after 330 hrs by CD spectroscopy
[5] = molecular target: Alpha-synuclein (Homo sapiens) (UniProt P37840); experiment: Induction of alpha-synuclein aggregation in PBS buffer assessed as transition of alpha-synuclein from natively unfolded monomer to cross-beta-sheet conformation after 96 hrs by CD spectroscopy
[6] = molecular target: Alpha-synuclein (Homo sapiens) (UniProt P37840); experiment: Induction of alpha-synuclein aggregation in PBS buffer assessed as alpha-synuclein monomer depletion after 96 hrs by size exclusion chromatography
[7] = system: SH-SY5Y; experiment: Cytotoxicity against human SH-SY5Y cells overexpressing alpha-synuclein at 20 uM after 48 hrs by MTT assay; format: cell-based
[8] = molecular target: Alpha-synuclein (Homo sapiens) (UniProt P37840); experiment: Induction of alpha-synuclein aggregation in PBS buffer assessed as transition of alpha-synuclein from natively unfolded monomer to cross-beta-sheet conformation after 72 hrs by CD spectroscopy
[9] = molecular target: Alpha-synuclein (Homo sapiens) (UniProt P37840); experiment: Induction of alpha-synuclein aggregation in PBS buffer assessed as alpha-synuclein monomer depletion after 72 hrs by size exclusion chromatography
[10] = molecular target: Alpha-synuclein (Homo sapiens) (UniProt P37840); experiment: Induction of alpha-synuclein aggregation in PBS buffer assessed as fluorescence after 48 hrs by Thioflavin T fluorescence assay
[11] = system: SH-SY5Y; experiment: Cytotoxicity against human SH-SY5Y cells overexpressing alpha-synuclein at 20 uM after 48 hrs by LDH assay; format: cell-based
[12] = molecular target: Alpha-synuclein (Homo sapiens) (UniProt P37840); experiment: Induction of alpha-synuclein aggregation in PBS buffer assessed as fluorescence after 72 hrs by Thioflavin T fluorescence assay
[13] = molecular target: Alpha-synuclein (Homo sapiens) (UniProt P37840); experiment: Induction of alpha-synuclein aggregation in PBS buffer assessed as alpha-synuclein monomer depletion after 48 hrs by size exclusion chromatography
[14] = molecular target: Alpha-synuclein (Homo sapiens) (UniProt P37840); experiment: Induction of alpha-synuclein aggregation in PBS buffer assessed as fluorescence after 44 to 305 hrs in presence of competitive Schiff-base inhibitor aminoguanidine by Thioflavin T fluorescence assay
[15] = Cytotoxicity against human SH-SY5Y cells overexpressing alpha-synuclein after 48 hrs by LDH assay; format: cell-based; conditions: read-out: LD50
[16] = molecular target: Alpha-synuclein (Homo sapiens) (UniProt P37840); experiment: Induction of alpha-synuclein aggregation in PBS buffer assessed as formation of alpha-synuclein fibrils after 96 hrs by electron microscopy
[17] = molecular target: Alpha-synuclein (Homo sapiens) (UniProt P37840); experiment: Induction of alpha-synuclein aggregation in PBS buffer assessed as formation of alpha-synuclein fibrils after 48 hrs by electron microscopy
[18] = Cytotoxicity against human SH-SY5Y cells overexpressing alpha-synuclein after 48 hrs by MTT assay; format: cell-based; conditions: read-out: LD50

SMILES	Activity [1]	Activity [2]	Activity [3]	Activity [4]	Activity [5]	Activity [6]	Activity [7]	Activity [8]	Activity [9]	Activity [10]	Activity [11]	Activity [12]	Activity [13]	Activity [14]	CC50 at 48 h [15]	Activity [16]	Activity [17]	CC50 at 48 h [18]
CC(C)CCC[C@@H](C)[C@H]1CC[C@H]2[C@@H]3CC=C4C[C@@H](O)CC[C@]4(C)[C@H]3CC[C@]12C [CHOLESTEROL]	0%	120 a.u.	30 a.u.	100%	4%	70%	Non-toxic	4%	19%	0 a.u.	Non-toxic	25 a.u.	2%					
CC(C)CCC[C@@H](C)[C@H]1CC[C@H]2[C@H](CC(=O)O)[C@@H]([C@@]3(C)CC[C@H](O)CC3=O)CC[C@]12C	40%	500 a.u.	410 a.u.	100%	60%	70%				220 a.u.		330 a.u.	50%	Active	55 µM	Active	Active	55 µM
